Melting point data for 88 compounds are collected here from a melting point compilation (Tetko et al.; mined from patent text by program, amines drawn as free bases though some values may be those of a salt).

What is called melting point is the temperature of the solid-liquid transition.

SMILES strings stand for the structures.

`N#Cc1cc(N2C(=O)CC(C(F)(F)F)CC2=O)c(F)cc1Cl` gave a melting point of 210 to 212 °C.
As to `COC(=O)c1cc(O)c2cc(N3CCOCC3)ccc2c1`, the melting point fell in the range of 231 to 234 °C.
Next, `CC(C#N)CNc1ccccc1[N+](=O)[O-]` (stereo not drawn): 44 to 47 °C.
Turning to `IC#CCOc1cccnc1`, the melting point stood at 130 °C.
As for `CN(Cc1cc2c(=O)c(C(=O)NCc3ccc(Cl)cc3)cn(C)c2o1)CC(O)c1ccc(O)cc1` (stereo not drawn), the figure is 72 to 75 °C; as for `COc1ccc([C@@H]2OC(=O)[C@H](C)N2C(=O)OCc2ccccc2)cc1`, 97 to 99 °C.
As for `COC(=O)n1nc2nc3n(c(=O)c2c1N)CCS3`, the figure is 200 to 203 °C; as for `CCOC(=O)C(C#N)=NOC(=O)Oc1cc(Cl)c(Cl)cc1Cl`, 101 to 103 °C; as for `CC(C)(C)OC(=O)NCCc1cccc(OCCC2Oc3ccccc3N(Cc3ccc(Cl)cc3)C2=O)c1` (stereo not drawn), 97 to 98.5 °C.
Take `OC(CSC1CCCCC1)CSC1CCCCC1`: the melting point lay in the range of 85.5 to 88.5 °C.
Next, `Clc1cc2c(nn1)-c1ccccc1OC2`: 208 °C.
As for `Cc1ccccc1C(CCC(=O)O)Oc1cc(OCc2cccnc2)ccc1C(=O)c1ccccc1` (stereo not drawn), the figure is 185 to 186 °C; as for `CNc1nc(-c2ccccc2)c(-c2nc3ccccc3c(=O)n2-c2ccccc2OC)s1`, 241 to 243 °C.
As for `CC(/C=C/c1c(C)sc(C)c1C)=C(F)\C=C\C(C)=C\C=O`, the figure is 129 to 131 °C; as for `c1ccc(Nc2ccncc2Oc2ccccc2)cc1`, 111 to 113 °C; as for `O=[N+]([O-])c1ccc2c(c1)CCN(Cc1ncn[nH]1)C2`, 163 to 166 °C.
`Cn1cc([N+](=O)[O-])c(C(=O)NC2CCCC2)n1` displayed a melting point of 176 to 177 °C.
On to `CC(C)Cc1nc2c(N)nc3ccccc3c2s1`, for which the melting point was in the range of 123 to 125 °C.
As for `c1csc(-c2ccnc(-c3cc(-c4cccs4)ccn3)c2)c1`, the figure is more than 250 °C; as for `O=C(O)CC1CCc2[nH]c3ccccc3c2C1` (stereo not drawn), 209 to 210 °C.
`CCCCOc1ccc(-c2ncc(Br)cn2)cn1` returned a melting point of 134 to 138 °C.
As for `C=CCn1c(=O)c2cccnc2n(-c2cccc([N+](=O)[O-])c2)c1=O`, the figure is 188 to 189 °C.
As for `CN(C)c1ccc(C=CC(=O)c2ccc3c(c2)CCC3)cc1`, the figure is 106 to 108 °C; as for `CCOC(=O)C(Cc1c[nH]c2c(F)cccc12)(NC=O)C(=O)OCC`, 164 to 166 °C; as for `Cc1cccnc1CCOc1ccc(NC(=O)N(C)C)cc1`, 123 to 125 °C.
`COC(=O)c1ncc(O)c2c1[nH]c1ccccc12` had a melting point of 241 to 242 °C.
As for `COc1ccc(C2(O)CCS(=O)(=O)CC2)cc1OC1CCCC1`, the figure is 147 to 149 °C; as for `Cc1n[nH]c(=O)n1-c1ccc(OC(F)(F)C(F)F)cc1`, 204 to 205 °C.
As for `Cc1nc2c(N)nc3c(c2n1CCOCCCc1cccnc1)CCCC3`, the figure is 140 to 141 °C.
As for `O=c1[nH]c2cccc(Br)c2c(=O)o1`, the figure is 280 to 281 °C; as for `O=[N+]([O-])c1ccc(Cn2c(-c3ccc4c(c3)OCO4)nc3ccccc32)cc1`, 172 to 174 °C; as for `CCc1ccc2c(c1)C=Cc1cc(C)ccc1C2c1cn(-c2ccnc(N(C)CC(=O)O)n2)c(=O)[nH]c1=S` (stereo not drawn), 187 °C.
`O=C(CC1(Sc2ccc(Oc3ccc(Cl)cc3)cc2)CCOCC1)NO` had a melting point of 50 to 55 °C.
Turning to `Cc1oc(-c2ccccc2)nc1COc1cc(COc2ccccc2CC(=O)O)on1`, the melting point was 152 to 153 °C.
As for `CCCCCCCCCCCCCCCCCCNC(=O)c1cc(OC(C)=O)cc(OC(C)=O)c1`, the figure is 99 to 101 °C; as for `Cc1cn(-c2cccc(OCCOS(N)(=O)=O)c2)cn1`, 169 to 170 °C; as for `CCCCCCCCCCCCCCCCCCOc1cc(OCCCOc2ccc(OCc3ccccc3)cc2)cc(C(=O)OC)c1`, 76 to 77 °C.
As for `Cc1oc2c(-c3ccc(F)cc3)c(-c3ccc(S(C)(=O)=O)cc3)nn2c1-c1ccccc1`, the figure is 234 to 236 °C; as for `C=CCC1(CC)C(=O)NC(=O)NC1=O`, 157 to 159 °C; as for `CCCCCCCCCCCCOc1ccc(NC(=O)C(=O)OCC)cc1`, 70.5 to 72 °C.
As for `COc1cc(OC)c2c(=O)[nH]c(-c3ccc(CCC(=O)O)cc3)nc2c1`, the figure is 251 °C; as for `COC1(c2ccccc2)OC=C(c2ccc(C(=O)O)cc2)C1=O` (stereo not drawn), 212 to 214 °C; as for `Cn1nc2c(-c3ccc(Cl)cc3Cl)cccc2c1CCC#N`, 192 to 193 °C.
The compound `COc1ccc(C(=O)Nc2c(Cl)cncc2Cl)c2c1OCC2CC(=O)NCc1ccc(Cl)cc1` (stereo not drawn) returned a melting point of 283 to 286 °C.
Next, `O=C(O)c1cnc2ccc(-c3ccc(C(F)(F)F)cc3)cn12`: 220 °C; `CCCCCOc1ccc(Cn2c(C)nc(Cl)c2COC(=O)NS(=O)(=O)c2ccc(C)cc2)c(Cl)c1`: 109 to 111 °C.
Next, `Cc1cc(OCc2ccccc2)c2cc(C(=O)N(C)C)[nH]c2c1`: 205 to 207 °C.
As for `Brc1cccc2ncn3ccnc3c12`, the figure is 215 to 216 °C.
With `Oc1ccc(-n2nc3c(c2Cl)CCCC3)c(F)c1`, the melting point fell in the range of 214 to 216 °C.
As for `O=S(=O)(c1ccc(Nc2nccc(-c3ccc(C(F)(F)F)cc3)n2)cc1)N1CCOCC1`, the figure is 240 to 241 °C; as for `Cc1[nH]cnc1Cc1cccc(CO)c1O`, 126 to 130 °C.
As for `CC(C)CCN1C(=O)C(NC(=O)Nc2ccccc2)C(=O)N(CC23CC4CC(CC(C4)C2)C3)c2ccccc21` (stereo not drawn), the figure is 156 to 157 °C; as for `CSc1cc(CCC(=O)O)cc(-c2nc(=O)c3ccccc3s2)n1`, 236 °C; as for `COc1cc(N)c(Cl)cc1C(=O)Nc1cc(OC)c(C(=O)N[C@H]2CCN(CCCOc3ccc(F)cc3)C[C@H]2OC)cc1Cl` (relative stereo), 182 °C.
`O=c1oc(-c2cc(C(F)(F)F)cc(C(F)(F)F)c2)cc(O)c1SCc1ccccc1` had a melting point of 80 to 82 °C.
As to `NC(=O)c1c(Cl)c(-c2ccccc2)n2c1CN(C(=O)CCC1CCCCC1)CC2`, the melting point is 181 to 182 °C.
Next, `CN(C)c1ccc(C=C2SC(=S)N(CC(=O)O)C2=O)cc1`: 260 to 264 °C; `CCCc1c2c(c3oc(C(=O)O)cc(=O)c3c1O)CCCC2`: 226 to 227 °C; `O=C1N(Cc2ccccn2)c2cccc(-c3cnc4ccccc4c3)c2C12COc1cc3c(cc12)OCCO3` (stereo not drawn): 228 to 230 °C.
As for `Cc1nn2c(C=O)c(-c3ccccc3)nc2s1`, the figure is 152 to 153 °C; as for `CN1CC(OC(=O)C(c2ccccc2)c2ccccc2)CNC1=N[N+](=O)[O-]` (stereo not drawn), 187 °C.
As for `CC(=O)CCN(CCNC(=O)OC(C)(C)C)c1nc2cc(Cl)ccc2o1`, the figure is 145 to 148 °C; as for `CCOC(C)c1cc(C(=O)OC)c(N)cc1C(F)(F)F` (stereo not drawn), 100 to 103 °C; as for `CC(C)[C@](O)(CCc1ccc(O)cc1)CC(=O)O`, 137 to 140 °C.
In turn, `CCCCCCCCC/C=C/C(=O)N[C@H]1CCCNC(=O)C1` had a melting point of 87 to 88 °C.
As for `CC(C)(C)c1ccc(/C=C/C(=O)Nc2ccc3nccnc3c2)cc1`, the figure is 229 to 230 °C; as for `CCCC(Cl)(Cl)C(NC(=O)c1ccc(Cl)cc1)NC(=C[N+](=O)[O-])Nc1cccnc1` (stereo not drawn), 185 to 186 °C.
Regarding `COc1cc(C=Cc2nc3c([nH]2)c(=O)n(C)c(=O)n3C)cc(OC)c1`, the melting point was more than 320 °C.
Compound `CC(=O)Oc1ccc2c(c1)COC(C(Cl)(Cl)Cl)N2` (stereo not drawn) yielded a melting point of 155 to 157 °C.
As for `CN(CCOc1ccc(C=C2SC(=O)NC2=O)cc1)c1ncccn1`, the figure is 189 to 190 °C; as for `COc1ccc(CNc2ncnc3c2ncn3C2OC(Cn3cc(C)nn3)C(O)C2O)cc1` (stereo not drawn), 183 °C; as for `N#Cc1cc(C(=O)O)cnc1Br`, 170 to 172 °C.
Next, `CCCCCCCOc1cc2c(cc1C(C)=O)C(C)(C)CCS2`: 69 to 71 °C; `CCOC(=O)c1nn(-c2ccc(Cl)cc2)c(=O)c2c(N)scc12`: 189 to 191 °C.
Next, `Cc1c(C)c2c(c(C)c1OCc1ccc(S(C)(=O)=O)cc1)C(c1ccc(C(C)C)cc1)C(C)(C)O2` (stereo not drawn): 161 to 162 °C.
`COCC1CC(Cn2ccnc2)(c2ccc(Cl)cc2)N(C)O1` (stereo not drawn) registered a melting point of 123 to 126 °C.
Next, `CC(C)(CO)c1ccc2c(c1)OC(C(F)(F)F)C(C(=O)O)=C2` (stereo not drawn): 229 to 230 °C; `COc1ccc(CN(C)CCc2ccc(NC(=O)c3cccc4c(=O)c5cccc(OC)c5sc34)cc2)cc1OC`: 151 °C.
As for `CCc1ccc2cc(C3(Cn4ccnc4)OCCO3)ccc2c1`, the figure is 251 °C; as for `c1ccc(COc2ccc(N3c4ccccc4Sc4ccccc43)cc2)cc1`, 144 to 146 °C.
In turn, `CCOC(=O)C=Cc1ccc(OC)c(-c2cc3c(cc2OCCCCCC(=O)OC(C)(C)C)C(C)(C)CCC3(C)C)c1` came in with a melting point of 130 to 132 °C.
Next, `COc1ccc(C(=O)NCCc2cccc(C)c2)cc1OC`: 108 to 109 °C; `CCCS(=O)CC(=O)NNC(=O)N1Cc2ccccc2Oc2ccc(Cl)cc21` (stereo not drawn): 158 to 160 °C; `Nc1nc(N)c(-c2ccc(Cl)cc2Cl)c(C(=O)O)n1`: 221 °C.
As for `CCOP(=O)(/C=C/c1cn(-c2ccccc2)nc1OCc1ccc(OCc2sc(-c3ccccc3)nc2C)c(OC)c1)OCC`, the figure is 113 to 114 °C.
Next, `CC(C)(CCC#N)c1ccc(C(=O)Nc2cn3cc(-n4ccnc4)ccc3n2)cc1`: 233 to 234 °C; `COc1ccc(C2=NN(Cc3ccc(C(=O)O)cc3)C(=O)[C@H]3CCCC[C@@H]23)cc1OC1CCCC1` (relative stereo): 189 to 190 °C; `CCCCCS(=O)(=O)NC(=O)/C=C/c1ccc(OCCOC)cc1Oc1ncc(NC(=O)OC(C)(C)C)cc1C`: 150 °C.
